Test results: patent publication US12139488B2, “Pyrido[3,2-d]pyrimidine compounds uses thereof for treating a proliferative disease” (Universite de Montreal, priority 2021, dated 2024)
Like-named read-outs stand apart in the source and are kept apart here.

Assays:
Type in all cases: cell-based, human
[1] = tested on: pERK in NCIH2087 cells (BRAF L597V; KRAS Q61K); assay: Phospho-ERK inhibition (AlphaLISA), NCIH2087; details: for NCIH2087 pERK % Ymin: NCIH2087, value in parentheses
Experimental: (§1) All cancer cell lines (A375, A101D, A2058, RKO, HT29 SK-MEL 30, IPC298, HepG2, HCT-116, Lovo, SWV620, SW480, NCI-H358, NCI-H2122, Calu-6, NCIH2087, NCIH1755, NCIH1666 and Mewo) were obtained from ATCC and cultured in RPMI-1640 medium (Gibco) supplemented with 5% heat inactivated fetal bovine serum (FBS, Wisent) at 37° C. under 5% CO2. Cells were maintained in T175 flasks (Greiner). They were passaged by removing the culture medium, washing once in 10 mL of room temperature Phosphate Buffered Saline (PBS; Wisent) and incubating at 37° C. with 2 mL of 0.05% Trypsin (Thermo-Fisher). Trypsin was then inactivated by adding complete growth medium and the cells were then replated in a T175 culture dish at the appropriate dilution. All cell lines were routinely tested for mycoplasma contamination. Tissue type and mutational status of each cell line can be found in Table B.
(§2) AlphaLISA® SureFire® Ultra™ p-ERK 1/2 (Thr202/Tyr204) analysis was conducted on cells plated in 100 μL of complete RPMI-1640 growth medium in 96-well flat-bottomed transparent dishes (Costar) at a density indicated in Table C. Cells were maintained overnight at 37° C. under 5% CO2 before treatment with compounds' dilution series for one hour. The cell density in cells/cm^2 corresponds to cell number divided by the area of one well of a 96-well plate ([…]).
(§3) In a dilution series 100 μL/well of test substance dilution prepared in complete RPMI-1640 growth media was added to the cells. The dilution series is selected so that ten concentrations cover a range from 10 μM to 0.33 nM. If necessary the initial concentration of 10 μM is increased to 100 μM or lowered to 1 μM (as in the case of A375 and H1666 cells, which are generally more sensitive to the compounds) and further dilution is carried out accordingly. The final concentration of DMSO in the assay is set at 0.5%.
(§4) After treatment, media was removed and cells were lysed in 50 μL of 1× AlphaScreen Ultra Lysis Buffer (Perkin Elmer). The AlphaLISA® SureFire® Ultra™ p-ERK 1/2 (Thr202/Tyr2O4) (PerkinElmer) reactions were performed with 5 μL of cell lysate according to the manufacturer's specifications in 384-well proxyplates (Perkin Elmer) followed by overnight incubation of the reactions at room temperature in a humidified chamber. After completion of the reactions, the signals were recorded on an EnVision plate reader (Perkin Elmer) using built in AlphaLISA® settings.
(§5) The effect of each compound dilution on the pERK signal was expressed in % inhibition and calculated as follows. An internal 100% inhibition control ([…] trametinib, cat #HY-10999; MedChem Express; CAS #871700-17-3) was included in each plate and used as a measure of pERK background. First, the value obtained for trametinib was subtracted from each data point. The average of DMSO (vehicle) controls (set as 0% inhibition) was established and used to calculate % inhibition: % inhibition=100*(1-((pERK signalcompound)/(pERK signalDMSO)))
(§6) The ability of each compound to inhibit pERK signal was expressed as an IC50 value obtained by plotting the inhibition values for each data point of a dilution series and fitting the obtained curves using a log(agonist) versus response-variable slope (four parameters) function using GraphPadPrism (V7.0) or Dotmatics Screening Ultra platform.
(§7) When present, paradoxical pERK induction is inferred from the negative % inhibition values observed in the pERK IC50 curves of a compound.

RKO cells (BRAF V600E) = assay: Proliferation inhibition (CellTiter-Glo), RKO; details: 3 days, read-out: RKO Prolif. EC50
Experimental: as §1
(§8) CellTiter-Glo® viability analysis was conducted on cells plated in 100 μL of complete RPMI-1640 growth medium in 96-well flat-bottomed white opaque plates (Greiner or Croning) at a density indicated in Table E (for each CCL, number of cells plated per well of a 96-well plate to perform the CellTiter-Glo® cell viability assay). The cell density in cells/cm^2 would correspond to cell number divided by the area of one well of a 96-well plate (0.32 cm^2). […]
(§9) After 3 days of incubation, the growth media were removed by aspiration and 60 μL of diluted CellTiter-Glo® reagent (10 μL CellTiter-Glo® reagent+50 μL of PBS) was added to each well. […] Luminescence signals were then acquired on a Synergy Neo2 plate reader (Biotek).
(§10) The effect of each compound dilution on the proliferation of cancer cell lines was expressed in % inhibition and calculated as follows. […]
as §6, with “proliferation” for “pERK signal”, “a EC50” for “an IC50”, “effect” for “inhibition”

[2] = tested on: NCI-H358 cells (KRAS-G12C); assay: Proliferation inhibition (CellTiter-Glo), NCI-H358; details: NCI-H358, 3 days, read-out: NCI-H358 Prolif. EC50
Experimental: as §1, §8, §9, §10
as §6, with “proliferation” for “pERK signal”, “a EC50” for “an IC50”, “effect” for “inhibition”

IPC298 cells (NRAS-Q61L) = assay: Proliferation inhibition (CellTiter-Glo), IPC298; details: IPC298, 3 days, read-out: IPC298 Prolif. EC50
Experimental: as §1, §8, §9, §10
as §6, with “proliferation” for “pERK signal”, “a EC50” for “an IC50”, “effect” for “inhibition”

[3] = tested on: NCIH1755 cells (BRAF G469A); assay: Proliferation inhibition (CellTiter-Glo), NCIH1755; details: NCIH1755, 3 days, read-out: NCIH1755 Prolif. EC50
Experimental: as §1, §8, §9, §10
as §6, with “proliferation” for “pERK signal”, “a EC50” for “an IC50”, “effect” for “inhibition”

[4] = tested on: pERK in Calu-6 cells (KRAS Q61K); assay: Phospho-ERK inhibition (AlphaLISA), Calu-6; details: for Calu6 pERK % Ymin: Calu6, value in parentheses
Experimental: as §1, §2, §3, §4, §5, §6, §7

IC50 ([1]; Homo sapiens, NCI-H2087)	EC50 ([2]; Homo sapiens, 72 h)	IC50 ([4]; Homo sapiens, Calu-6, read-out: Calu6 pERK IC50)	IC50 ([1]; NCIH2087)	EC50 [2]	IC50 ([4]; Calu6)	Compound	NCIH2087 pERK % Ymin [1]	EC50 (RKO cells (BRAF V600E); Homo sapiens, 72 h)	EC50 (IPC298 cells (NRAS-Q61L); Homo sapiens, IPC-298, 72 h)	EC50 ([3]; Homo sapiens, NCI-H1755, 72 h)	Calu6 pERK % Ymin [4]	EC50 (RKO cells (BRAF V600E))	EC50 (IPC298 cells (NRAS-Q61L))	EC50 [3]
< 30 nM	300 to 3000 nM	30 to 300 nM	–	–	–	Cc1ccc2c(Nc3cccc(Cl)c3F)nccc2c1NC(=O)c1csc2c(N)ncnc12 [Belvarafenib, reference compound]	6%	< 30 nM	< 30 nM	> 3000 nM	−39%	–	–	–
–	–	–	< 30 nM	< 30 nM	30 to 300 nM	Nc1cccc2c1ncn2-c1ccc2ncnc(Nc3c(F)ccc(NS(=O)(=O)c4cccc(Cl)c4Cl)c3F)c2n1 [Example 99]	15%	–	–	–	−12%	< 30 nM	< 30 nM	< 30 nM
–	–	–	< 30 nM	< 30 nM	30 to 300 nM	CC1(O)CCN(c2cccc3c2ncn3-c2ccc3ncnc(Nc4c(F)ccc(NS(=O)(=O)c5cccc(Cl)c5Cl)c4F)c3n2)CC1 [Example 524]	3%	–	–	–	−13%	< 30 nM	< 30 nM	300 to 3000 nM
